Measurements published in patent US20150250167A1, “COMPOSITION FOR NOXIOUS ORGANISMS-CONTROLLING AGENT AND METHOD FOR USING THE SAME” (priority 2001, published 2015).

Assays:
[1] = test system: Smaller Tea Tortrix (Adoxophyes orana fosciota); test: Insecticidal test on smaller tea tortrix, tea leaf dipping; type: in vivo; conditions: single agent 0.3 ppm, 4th instar larvae, 25° C.
Protocol: Insecticidal Test on Smaller Tea Tortrix (Adoxophyes orana fosciota)
Tea leaves were dipped in a solution of a chemical diluted to a prescribed concentration for 30 seconds. […] Four days and seven days after the treatment, the number of alive insects were counted, from which percentage of death was calculated.

[2] = test system: Green Peach Aphid (Myzus persicae); test: Insecticidal test on green peach aphid, spraying of Chinese cabbage, control value; type: in vivo; conditions: 100 ppm, single agent, 6 days after spraying
[3] = test system: Brown Rice Planthopper (Nilaparvata lugens); test: Insecticidal test on brown rice planthopper, rice seedling dipping; type: in vivo; conditions: 100 ppm, single agent; for Death rate (%) After 1 days: after 1 day
[4] = test system: Southern Root-Knot Nematode (Meloidogyne incognita); test: Test for the effect on southern root-knot nematode, soil blending with granular preparation; type: in vivo; conditions: 300 g ai/10a, single agent, 60 days after treatment
[5] = test system: Rice Water Weevil (Lissorhoptrus oryzophilus); test: Control of rice water weevil on paddyfield rice by nursery box application, extent of injury; type: in vivo; conditions: 0.5 g ai/Box, single agent
[6] = test system: Rice Blast; conditions: in vivo
[7] = test system: Small Brown Planthopper (Laodelphax striatellus); test: Control of small brown planthopper on paddyfield rice by nursery box application, number of parasitic insects; type: in vivo; conditions: 0.5 g ai/Box, single agent
Summary of the method: (§1)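 Rice (cv. Nihombare) in nursery boxes received 50 g granules, then was transplanted to paddy in mid-May. Planthopper: insects counted on 30 hills/plot at 40 and 60 days post-transplant. Leafroller: injured leaves counted on 100 hills/plot at 50 days.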

[8] = test system: Rice Leafroller (Cnaphalocrosis medinalis); test: Control of rice leafroller on paddyfield rice by nursery box application, number of injured leaves; type: in vivo; conditions: 0.5 g ai/Box, single agent
Summary of the method: as §1

[9] = test system: Diamondback Moth (Plutella xyloxtella); test: Control of diamondback moth on cabbage by soil treatment, number of parasitic insects; type: in vivo; conditions: 5 mg ai/hill, 21 days after transplanting
Summary of the method: (§2)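 Cabbage (YR Seitoku) treated with granular preparation via bed-soil incorporation at sowing, or at leaf-extraction, pre-transplant, planting-hole or post-planting plant-foot stage.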

[10] = test system: Aphid; test: Control of aphid on cabbage by soil treatment, number of parasitic insects; type: in vivo; conditions: 5 mg ai/hill, 21 days after transplanting
Summary of the method: as §2

[11] = test system: Cutworm; test: Test for the effect against cutworm on beet, drench, number of injured hills per 100 hills; type: in vivo; conditions: 15 g ai/10a
Protocol: Test for the Effect Against Cutworm on Beet
Beet seedlings (variety: Monoace S) planted in a paper pot was treated with 3 L/m^2 of a solution of an agent diluted to a predetermined concentration, by the method of drench. Just after the drench, the plant was set. Predetermined days after the setting, the number of injured hills per 100 hills was counted.

[12] = test system: Citrus Yellow Thrips (Frankliniella occidentalis); test: Control of citrus yellow thrips on egg plant by combined use with natural enemy pesticide, number of thrips; type: in vivo; conditions: 100 ppm, spray
[13] = test system: Resistant Strain of Two-Spotted Spider Mite; conditions: 100 ppm, single agent, 2 days after spraying
[14] = true leaf extraction season treatment

| SMILES | Death rate (%) After 4 days [1] | Death rate (%) After 7 days [1] | Control degree (%) [2] | Death rate (%) After 1 days [3] | Death rate (%) After 5 days [3] | Number of nematodes per 25 g of soil sample [4] | Extent of injury After 21 days [5] | Areal rate of disease spot (%) After 60 days [6] | Number of parasitic planthoppers per 30 hills After 40 days [7] | Number of parasitic planthoppers per 30 hills After 60 days [7] | Percentage of injured leaves (%) After 50 days [8] | Number of parasitic insects per 30 hills, Diamondback moth ([9]; plant foot treatment) | Number of parasitic insects per 30 hills, Diamondback moth ([9]; pre-transplanting treatment) | Number of parasitic insects per 30 hills, Diamondback moth ([9]; pricking-in hole treatment) | Number of parasitic insects per 30 hills, Diamondback moth ([9]; soil incorporation) | Number of parasitic insects per 30 hills, Diamondback moth [9, 14] | Number of parasitic insects per 30 hills, Aphid ([10]; plant foot treatment) | Number of parasitic insects per 30 hills, Aphid ([10]; pre-transplanting treatment) | Number of parasitic insects per 30 hills, Aphid ([10]; pricking-in hole treatment) | Number of parasitic insects per 30 hills, Aphid ([10]; soil incorporation) | other results |
| --- | --- | --- | --- | --- | --- | --- | --- | --- | --- | --- | --- | --- | --- | --- | --- | --- | --- | --- | --- | --- | --- |
| Cc1cc(C(F)(C(F)(F)F)C(F)(F)F)ccc1NC(=O)c1cccc(I)c1C(=O)NC(C)C [Compound 43] | 0% | 35% | 0% | 0% | 0% | 36 | 44.3 | 8.9% | 309 | 334 | 0.17% | 2 | 3 | 1 | 2 | 2 | 467 | 482 | 447 | 501 | Number of parasitic insects per 30 hills, Aphid [10, 14]: 448; Number of injured hills per 100 hills, After 60 days [11]: 0; Number of injured hills per 100 hills, After 90 days [11]: 6; Number of injured hills per 100 hills, After 120 days [11]: 19; Number of parasitic insects per 20 leaves, After 60 days [12]: 23; Number of parasitic insects per 20 leaves, After 90 days [12]: 31; Number of parasitic insects per 20 leaves, After 120 days [12]: 57; Death rate (%) [13]: 0% |
| Cc1cc(OC(F)(F)F)ccc1NC(=O)c1cccc(I)c1C(=O)NC(C)C [Compound 44] | 0% | 20% | 0% | 0% | 0% | 29 | 45.9 | 9.1% | 323 | 358 | 0.24% | 2 | 3 | 3 | 3 | 2 | 492 | 498 | 478 | 449 | Number of parasitic insects per 30 hills, Aphid [10, 14]: 502; Number of injured hills per 100 hills, After 60 days [11]: 0; Number of injured hills per 100 hills, After 90 days [11]: 7; Number of injured hills per 100 hills, After 120 days [11]: 20; Number of parasitic insects per 20 leaves, After 60 days [12]: 25; Number of parasitic insects per 20 leaves, After 90 days [12]: 33; Number of parasitic insects per 20 leaves, After 120 days [12]: 53; Death rate (%) [13]: 0% |
